Laboratory results taken from publication PMC8376405 (Protein Science : A Publication of the Protein Society, 2021).

B1: CtTrpAB (Chlamydia trachomatis D/UW-3/CX) (protein)
chain: MFKHKHPFGGAFLPEELLAPIQNLKAEWEILKTQQSFLSELDCILKNYAGRQTPLTEVKNFARAIDGPRVFLKREDLLHTGAHKLNNALGQCLLAKYLGKTRVVAETGAGQHGVATATACAYLGLDCVVYMGAKDVERQKPNVEKMRFLGAEVVSVTKGSCGLKDAVNQALQDWATTHSFTHYCLGSALGPLPYPDIVRFFQSVISAEVKEQIHAVAGRDPDILIACIGGGSNAIGFFHHFIPNPKVQLIGVEGGGLGISSGKHAARFATGRPGVFHGFYSYLLQDDDGQVLQTHSISAGLDYPSVGPDHAEMHESGRAFYTLATDEEALRAFFLLTRNEGIIPALESSHALAHLVSIAPSLPKEQIVIVNLSGRGDKDLPQIIRRNRGIYE

Experiments:
CtTrpAB = molecular target: T1, CtTrpAB (Chlamydia trachomatis, UniProt O84172); assay: X-ray crystal structure, […] Å; type: binding; settings: covalent adduct to beta Lys84 in TrpB; sulfate in the serine site
T1 sequence (O84172 1-392): B1 chain
T1 sequence (O84173 1-253 partner): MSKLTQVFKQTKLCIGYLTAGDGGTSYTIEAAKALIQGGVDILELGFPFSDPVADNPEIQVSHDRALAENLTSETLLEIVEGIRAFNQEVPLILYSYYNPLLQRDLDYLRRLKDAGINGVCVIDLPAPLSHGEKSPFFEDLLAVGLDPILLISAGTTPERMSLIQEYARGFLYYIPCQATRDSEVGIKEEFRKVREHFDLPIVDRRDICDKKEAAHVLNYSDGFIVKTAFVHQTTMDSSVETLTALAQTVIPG

purified protein = substrate: c1ccc2[nH]ccc2c1; assay: purified protein; type: biochemical, Chlamydia trachomatis; settings: L-Ser co-substrate, 40 uM PLP, 100 mM KCl, pH 8.0, room temperature

Molecule	X-ray crystal structure, 2.42 Å (CtTrpAB)	kcat (purified protein) [min⁻¹]
Cc1ncc(COP(=O)(O)O)c(C=O)c1O [pyridoxal 5′-phosphate]	The CtTrpB active site, marked by the PLP adduct to βLys84	–
B1	–	21.1
